According to patent EP0908457B1, “3-(1,2-benzisothiazol- and isoxazol-5-Y1)-2,4(1H,3H)-pyrimidinedione or thione and 3-(1,2-benzisothiazol- and isoxazol-5-y1)-4(3H)-pyrimidinone or thione herbicidal agents” (BASF AKTIENGESELLSCHAFT, priority 1997, dated 1999):

Tests used:
Sagittaria pygmaea, L. = experiment: Preemergence weed control under flooded paddy conditions, SAGPY (Arrowhead (Pygmaea)); type: in vivo; conditions: preemergence, flooded paddy, rated three to four weeks after treatment; as to herbicidal effect rating, SAGPY: meaning of each grade not given here
[1] = tested on: Oryza sativa, (L.) Tebonnet; experiment: Rice tolerance to post-transplant applications under flooded paddy conditions (Example 187), ORYSAT (Rice, Tebonnet); conditions: rated three to four weeks after treatment; as to herbicidal effect rating ORYSAT: meaning of each grade not given here
[2] = tested on: Cyperus serotinus, Rottb.; experiment: Preemergence weed control under flooded paddy conditions, CYPSE (Flatsedge); type: in vivo; conditions: preemergence, rated three to four weeks after treatment; as to herbicidal effect rating, CYPSE: meaning of each grade not given here
[3] = tested on: Monochoria vaginalis, Presl.; experiment: Preemergence weed control under flooded paddy conditions, MOOVA (Monochoria); type: in vivo; conditions: preemergence, flooded paddy, rated three to four weeks after treatment; as to herbicidal effect rating, MOOVA: meaning of each grade not given here
Cyperus iria = experiment: Preemergence weed control under flooded paddy conditions, CYPIR (Rice Flatsedge); type: in vivo; conditions: preemergence, flooded paddy, rated three to four weeks after treatment; as to herbicidal effect rating, CYPIR: meaning of each grade not given here
[4] = tested on: Echinochloa oryzoides (Ard.) Fritsch.; experiment: Preemergence weed control under flooded paddy conditions, ECHORC (Watergrass (Calif.)); type: in vivo; conditions: preemergence, flooded paddy, rated three to four weeks after treatment; as to herbicidal effect rating, ECHORC: meaning of each grade not given here

## Cc1ccc(OCC(=O)N(C)O)c(-c2nsc3ccc(-n4c(=O)cc(C(F)(F)F)n(C)c4=O)cc23)c1 [Example 355, Acetohydroxamic acid, 2-{{2-{5-[3,6-dihydro-3-methyl-2,6-dioxo-4-(trifluoromethyl)-1(2H)pyrimidinyl]-1,2-benzisothiazol-3-yl}-p-tolyl}oxy}-N-methyl-]
Sagittaria pygmaea, L.; Rate 0.0320 kg/ha
  herbicidal effect rating, SAGPY: 2.0
Sagittaria pygmaea, L.; Rate 0.0620 kg/ha
  herbicidal effect rating, SAGPY: 4.5
Sagittaria pygmaea, L.; Rate 0.1250 kg/ha
  herbicidal effect rating, SAGPY: 4.5
Sagittaria pygmaea, L.; Rate 0.2500 kg/ha
  herbicidal effect rating, SAGPY: 9.0
[1]; Rate 0.0320 kg/ha
  herbicidal effect rating ORYSAT: 2.5
[1]; Rate 0.0620 kg/ha
  herbicidal effect rating ORYSAT: 3.0
[1]; Rate 0.1250 kg/ha
  herbicidal effect rating ORYSAT: 5.5
[1]; Rate 0.2500 kg/ha
  herbicidal effect rating ORYSAT: 5.0
[2]; Rate 0.0320 kg/ha
  herbicidal effect rating, CYPSE: 0.0
[2]; Rate 0.0620 kg/ha
  herbicidal effect rating, CYPSE: 1.0
[2]; Rate 0.1250 kg/ha
  herbicidal effect rating, CYPSE: 3.5
[2]; Rate 0.2500 kg/ha
  herbicidal effect rating, CYPSE: 5.0
[3]; Rate 0.0320 kg/ha
  herbicidal effect rating, MOOVA: 9.0
[3]; Rate 0.0620 kg/ha
  herbicidal effect rating, MOOVA: 9.0
[3]; Rate 0.1250 kg/ha
  herbicidal effect rating, MOOVA: 9.0
[3]; Rate 0.2500 kg/ha
  herbicidal effect rating, MOOVA: 9.0
Cyperus iria; Rate 0.0320 kg/ha
  herbicidal effect rating, CYPIR: 4.5
Cyperus iria; Rate 0.0620 kg/ha
  herbicidal effect rating, CYPIR: 4.5
Cyperus iria; Rate 0.1250 kg/ha
  herbicidal effect rating, CYPIR: 6.5
Cyperus iria; Rate 0.2500 kg/ha
  herbicidal effect rating, CYPIR: 5.0
[4]; Rate 0.0320 kg/ha
  herbicidal effect rating, ECHORC: 7.0
[4]; Rate 0.0620 kg/ha
  herbicidal effect rating, ECHORC: 9.0
[4]; Rate 0.1250 kg/ha
  herbicidal effect rating, ECHORC: 9.0
[4]; Rate 0.2500 kg/ha
  herbicidal effect rating, ECHORC: 9.0

## CC(C)N(C(C)C)S(=O)(=O)NC(=O)COc1ccccc1-c1nsc2ccc(-n3c(=O)cc(C(F)(F)F)n(C)c3=O)cc12 [Example 512, Acetamide, 2-{o-{5-[3,6-dihydro-3-methyl-2,6-dioxo-4-(trifluoromethyl)-1(2H)-pyrimidinyl]-1,2-benzisothiazol-3-yl}phenoxy}-N-(diisopropyl-sulfamoyl)-]
Sagittaria pygmaea, L.; 0.0320 kg/ha
  SAGPY herbicidal rating: 0.0
Sagittaria pygmaea, L.; 0.0620 kg/ha
  SAGPY herbicidal rating: 0.0
Sagittaria pygmaea, L.; 0.1250 kg/ha
  SAGPY herbicidal rating: 2.0
Sagittaria pygmaea, L.; 0.2500 kg/ha
  SAGPY herbicidal rating: 4.0
[1]; 0.0320 kg/ha
  ORYSAT herbicidal rating (rice tolerance): 0.0
[1]; 0.0620 kg/ha
  ORYSAT herbicidal rating (rice tolerance): 0.0
[1]; 0.1250 kg/ha
  ORYSAT herbicidal rating (rice tolerance): 1.0
[1]; 0.2500 kg/ha
  ORYSAT herbicidal rating (rice tolerance): 2.0
[2]; 0.0320 kg/ha
  CYPSE herbicidal rating: 0.0
[2]; 0.0620 kg/ha
  CYPSE herbicidal rating: 0.0
[2]; 0.1250 kg/ha
  CYPSE herbicidal rating: 0.0
[2]; 0.2500 kg/ha
  CYPSE herbicidal rating: 0.0
[3]; 0.0320 kg/ha
  MOOVA herbicidal rating: 9.0
[3]; 0.0620 kg/ha
  MOOVA herbicidal rating: 9.0
[3]; 0.1250 kg/ha
  MOOVA herbicidal rating: 9.0
[3]; 0.2500 kg/ha
  MOOVA herbicidal rating: 9.0
Cyperus iria; 0.0320 kg/ha
  CYPIR herbicidal rating: 0.0
Cyperus iria; 0.0620 kg/ha
  CYPIR herbicidal rating: 2.0
Cyperus iria; 0.1250 kg/ha
  CYPIR herbicidal rating: 5.0
Cyperus iria; 0.2500 kg/ha
  CYPIR herbicidal rating: 5.0
[4]; 0.0320 kg/ha
  ECHORC herbicidal rating: 7.0
[4]; 0.0620 kg/ha
  ECHORC herbicidal rating: 7.0
[4]; 0.1250 kg/ha
  ECHORC herbicidal rating: 9.0
[4]; 0.2500 kg/ha
  ECHORC herbicidal rating: 9.0

## COc1ccccc1Oc1noc2ccc(-n3c(=O)cc(C(F)(F)F)n(C)c3=O)cc12 [Example 43, 3-[3-(o-Methoxyphenoxy)-1,2-benzisoxazol-5-yl]-1-methyl-6-(trifluoromethyl)-2,4(1H,3H)-pyrimidinedione]
Sagittaria pygmaea, L.; 0.0313 kg/ha
  herbicidal effect rating, SAGPY: 0.0
Sagittaria pygmaea, L.; 0.0625 kg/ha
  herbicidal effect rating, SAGPY: 0.0
Sagittaria pygmaea, L.; 0.1250 kg/ha
  herbicidal effect rating, SAGPY: 0.0
Sagittaria pygmaea, L.; 0.2500 kg/ha
  herbicidal effect rating, SAGPY: 0.0
[1]; 0.0313 kg/ha
  herbicidal effect rating, ORYSAT (rice tolerance): 1.0
[1]; 0.0625 kg/ha
  herbicidal effect rating, ORYSAT (rice tolerance): 2.0
[1]; 0.1250 kg/ha
  herbicidal effect rating, ORYSAT (rice tolerance): 3.0
[1]; 0.2500 kg/ha
  herbicidal effect rating, ORYSAT (rice tolerance): 3.0
[2]; 0.0313 kg/ha
  herbicidal effect rating, CYPSE: 0.0
[2]; 0.0625 kg/ha
  herbicidal effect rating, CYPSE: 0.0
[2]; 0.1250 kg/ha
  herbicidal effect rating, CYPSE: 0.0
[2]; 0.2500 kg/ha
  herbicidal effect rating, CYPSE: 0.0
[3]; 0.0313 kg/ha
  herbicidal effect rating, MOOVA: 6.0
[3]; 0.0625 kg/ha
  herbicidal effect rating, MOOVA: 9.0
[3]; 0.1250 kg/ha
  herbicidal effect rating, MOOVA: 9.0
[3]; 0.2500 kg/ha
  herbicidal effect rating, MOOVA: 9.0
Cyperus iria; 0.0313 kg/ha
  herbicidal effect rating, CYPIR: 0.0
Cyperus iria; 0.0625 kg/ha
  herbicidal effect rating, CYPIR: 0.0
Cyperus iria; 0.1250 kg/ha
  herbicidal effect rating, CYPIR: 0.0
Cyperus iria; 0.2500 kg/ha
  herbicidal effect rating, CYPIR: 0.0
[4]; 0.0313 kg/ha
  herbicidal effect rating, ECHORC: 0.0
[4]; 0.0625 kg/ha
  herbicidal effect rating, ECHORC: 0.0
[4]; 0.1250 kg/ha
  herbicidal effect rating, ECHORC: 2.0
[4]; 0.2500 kg/ha
  herbicidal effect rating, ECHORC: 8.0

## Cn1c(C(F)(F)F)cc(=O)n(-c2ccc3snc(C(C#N)(Cc4ccccc4)Cc4ccccc4)c3c2)c1=O [Example 582, 1,2-Benzisothiazole-3-acetonitrile, alpha,alpha-dibenzyl-5-[3,6-dihydro-3-methyl-2,6-dioxo-4-(trifluoromethyl)-1(2H)-pyrimidinyl]-]
Sagittaria pygmaea, L.; Rate 0.0320 kg/ha
  herbicidal effect rating, SAGPY: 5.0
Sagittaria pygmaea, L.; Rate 0.0620 kg/ha
  herbicidal effect rating, SAGPY: 5.0
Sagittaria pygmaea, L.; Rate 0.1250 kg/ha
  herbicidal effect rating, SAGPY: 6.0
Sagittaria pygmaea, L.; Rate 0.2500 kg/ha
  herbicidal effect rating, SAGPY: 6.0
[1]; Rate 0.0320 kg/ha
  herbicidal effect rating ORYSAT: 0.0
[1]; Rate 0.0620 kg/ha
  herbicidal effect rating ORYSAT: 0.0
[1]; Rate 0.1250 kg/ha
  herbicidal effect rating ORYSAT: 0.0
[1]; Rate 0.2500 kg/ha
  herbicidal effect rating ORYSAT: 3.0
[2]; Rate 0.0320 kg/ha
  herbicidal effect rating, CYPSE: 0.0
[2]; Rate 0.0620 kg/ha
  herbicidal effect rating, CYPSE: 0.0
[2]; Rate 0.1250 kg/ha
  herbicidal effect rating, CYPSE: 0.0
[2]; Rate 0.2500 kg/ha
  herbicidal effect rating, CYPSE: 7.0
[3]; Rate 0.0320 kg/ha
  herbicidal effect rating, MOOVA: 7.0
[3]; Rate 0.0620 kg/ha
  herbicidal effect rating, MOOVA: 7.0
[3]; Rate 0.1250 kg/ha
  herbicidal effect rating, MOOVA: 7.0
[3]; Rate 0.2500 kg/ha
  herbicidal effect rating, MOOVA: 7.0
Cyperus iria; Rate 0.0320 kg/ha
  herbicidal effect rating, CYPIR: 3.0
Cyperus iria; Rate 0.0620 kg/ha
  herbicidal effect rating, CYPIR: 4.0
Cyperus iria; Rate 0.1250 kg/ha
  herbicidal effect rating, CYPIR: 6.0
Cyperus iria; Rate 0.2500 kg/ha
  herbicidal effect rating, CYPIR: 6.0
[4]; Rate 0.0320 kg/ha
  herbicidal effect rating, ECHORC: 6.0
[4]; Rate 0.0620 kg/ha
  herbicidal effect rating, ECHORC: 7.0
[4]; Rate 0.1250 kg/ha
  herbicidal effect rating, ECHORC: 7.0
[4]; Rate 0.2500 kg/ha
  herbicidal effect rating, ECHORC: 9.0
